Laboratory results from patent US20210196731A1, “COMPOSITIONS AND METHODS FOR TREATING OCULAR INFLAMMATION AND OCULAR SCARRING” (priority 2018, published 2021).

Key:
Type in all cases: cell-based, human
[1] = tested on: HTCFs; test: Cytotoxicity assay, in situ fluorescence-based LIVE/DEAD (fluorescein diacetate/propidium iodide)
Description: To assess the relative cellular viability between different experimental conditions, an in situ fluorescence-based LIVE/DEAD assay was used. This is a well reported method for estimating the cytotoxicity of an intervention. In brief, two florescent dyes, fluorescein diacetate and propidium iodide, are added to the culture media surrounding the collagen constructs. Fluorescein diacetate is converted into a […] fluorescent molecule by esterases within living cells. Propidium iodide (red) cannot pass through a viable cell's membrane, however it can penetrate disordered areas of dead cell membranes and then intercalates with the nuclear DNA. After a 5 min incubation with the staining solution, collagen constructs were washed with PBS and immediately imaged on a laser-scanning confocal microscope (A1R HD Nikon Instruments Inc., Tokyo, Japan). Ten random frames were taken with the 20× objective per tissue section, with three tissue sections imaged per patient cell line and treatment group. The laser intensity settings were kept consistent between samples to facilitate consistent comparison between replicates.
Using ImageJ, blue signals were counted within every frame and counted as living cells. The same was done for red signals, and these were counted as dead cells. The ratio of living (blue) to total (blue+red) cells was recorded.

[2] = tested on: αSMA; test: Western blot of HTCF protein lysate, αSMA
Description: (§1) Cells were lysed in lysis buffer (PhosphoSafe Extraction Reagent, Novagen) containing a protease inhibitor cocktail (P2714, Sigma-Aldrich). Crude protein lysate was quantified using a Pierce BCA protein assay kit (ThermoFisher, Mississauga, ON) and 10 ug from each sample was resolved using a Novex WedgeWell 4-20% tris-glycine gel (Invitrogen). Using an iBlot Gel Transfer Device (IB1001, Invitrogen), the separated protein was transferred to a nitrocellulose membrane (1B301001, iBlot Transfer Stack, Invitrogen) which was then blocked with 5% (w/v) bovine serum albumin (Sigma-Aldrich) in Tris buffered saline (TBST) for 1 hour at room temperature. The membranes were incubated overnight at 4° C. with primary antibody diluted in TBST containing 5% BSA (w/vol). […] Visualization was accomplished by applying WesternBright Quantum chemiluminescent reagent (Advansta, Inc.), with GAPDH used as a protein loading control. Imaging and relative densiometric quantification was accomplished using a ChemiDoc MP System (Bio-Rad Laboratories, Inc.) connected to Image Lab (Version 6, Bio-Rad Laboratories, Inc.).

[3] = tested on: pSMAD2/3; test: Western blot of HTCF protein lysate, pSMAD2/3; conditions: ASA 500 or 1000 μg/ml, APHS 12 μg/ml, 48 hrs; for ratio of pSMAD2/3 to tSMAD2/3 (proportion of active to total SMAD2/3): AHGFs; for AHGF-induced levels of pSMAD2/3: with or without gentamicin 250 or 500 μg/ml
Description: as §1

[4] = tested on: SMAD2/3; test: Western blot of HTCF protein lysate, SMAD2/3; conditions: ASA 500 or 1000 μg/ml, APHS 12 μg/ml, 48 hrs
Description: as §1

[5] = ASA 500 or 1000 μg/ml, APHS 12 μg/ml, with or without gentamicin 250 or 500 μg/ml, 48 hrs (FIG. 17B)

Structure (SMILES) | relative proportion of living to total cells ([1]; AHGFs, APHS 24 μg/ml, alone or with gentamicin 750 μg/ml) | AHGF-induced expression of αSMA [2, 5] | ratio of pSMAD2/3 to tSMAD2/3 (proportion of active to total SMAD2/3) [3] | AHGF-induced levels of pSMAD2/3 [3] | AHGF-induced expression of SMAD2/3 [4] | relative proportion of living to total cells ([1]; AHGFs, ASA 1500 μg/ml, with or without gentamicin 750 μg/ml, mitomycin C 0.2 mg/ml for 1, 2 or 4 minutes) | relative proportion of living to total cells ([1]; Collagen Contraction Assay III conditions, ASA 1000 or 1500 μg/ml, with or without gentamicin, four days) | AHGF-induced expression of αSMA ([2]; ASA 100, 400, 1600 μg/ml, 48 hrs (FIG. 16))
CCCCC#CCSc1ccccc1OC(C)=O [APHS, o-(acetoxyphenyl)hept-2-ynyl sulfide] | unchanged relative to the AHGFs control group | significantly reduced | significantly reduce the proportion of active to total SMAD2/3 from AHGF-induced levels | significantly reduced | significantly reduced |  |  | 
CC(=O)Oc1ccccc1C(=O)O [ASA, acetylsalicylic acid] |  | significantly reduced | significantly reduce the proportion of active to total SMAD2/3 from AHGF-induced levels | significantly reduced | significantly reduced | unchanged relative to vehicle control | unchanged relative to vehicle control | significantly impaired the AHGF-induced expression of αSMA
